The target of the assay is T1, NG-FlhF (Shewanella putrefaciens, UniProt A4Y8J9).
T1 construct: gene Sputcn32_2561; NG domain, residues 174-460, C-terminal His6 tag, recombinant from E. coli BL21(DE3), monomer; residues 183-437 modelled
T1 sequence (A4Y8J9 174-460): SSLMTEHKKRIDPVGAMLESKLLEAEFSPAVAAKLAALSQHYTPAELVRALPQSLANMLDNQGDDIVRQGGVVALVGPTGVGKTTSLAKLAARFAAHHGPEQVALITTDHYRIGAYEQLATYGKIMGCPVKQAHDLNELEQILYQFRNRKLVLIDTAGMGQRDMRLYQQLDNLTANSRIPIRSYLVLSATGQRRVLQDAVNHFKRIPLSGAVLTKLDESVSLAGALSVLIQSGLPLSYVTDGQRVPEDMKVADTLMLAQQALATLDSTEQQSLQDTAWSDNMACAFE
As to the kind of experiment: X-ray crystal structure. It is filed as binding. The settings on record: 5 mM GDP pre-incubated with protein; crystallised at pH 5.0, 20 °C; nucleotide site, no Mg2+ in active site.

Turning to `Nc1nc2c(ncn2[C@@H]2O[C@H](COP(=O)(O)OP(=O)(O)O)[C@@H](O)[C@H]2O)c(=O)[nH]1` [GDP], the X-ray crystal structure result was “Density which could unambiguously be assigned to GDP was found in the active center”.

The values above are taken from PMC10910532, “Structure of the GDP-bound state of the SRP GTPase FlhF” (Acta Crystallographica. Section F, Structural Biology …, 2024).
